# Measurements from publication PMC1500806, “Carrageenan Is a Potent Inhibitor of Papillomavirus Infection” (PLoS Pathogens, 2006).
# Positions of bridges follow the written chain, without caps; N, C: chain ends. Non-standard residues stand in square brackets, D forms with d. Residues, ends and D or L forms follow the SMILES beside them. *: point of attachment. Ileψ(thiazoline)Cys = CC[C@H](C)[C@H](N)C1=N[C@H](C(=O)*)CS1; dOrn = NCCC[C@@H](N)C(=O)O
# System: not listed separately
# Assay: Cytotoxicity (WST-1 turnover and/or cell morphology)
# Format: cell-based
# Conditions: human, HeLa cells; >50% reduction in WST-1 turnover and/or altered cell morphology
# Experimental: (§1) Compounds were tested using a previously described PsV-based papillomavirus inhibition assay. Briefly, HeLa cells were plated at 6,000 cells/well in 50 μl of medium in 96-well plates. Candidate inhibitors were dissolved at 1–10 mg/ml (or reconstituted as directed by manufacturer) in sterile water or appropriate solvent, then subjected to a ten-point three-fold serial dilution covering an appropriate concentration range. Diluted candidate inhibitor (50 μl) was added to preplated HeLa cells, followed by 50 μl of diluted PsV stock. The cells were incubated for 24 h, fed by addition of 100 μl of DMEM-10, then subjected to flow cytometric analysis 48–56 h after infection. IC50 values and 95% CI were determined using Prism (GraphPad Software, San Diego, California, United States) to calculate a variable slope sigmoidal dose-response curve.
# (§2) Cytotoxicity was defined as a >50% reduction in the net turnover of the metabolic substrate WST-1 (Roche, Indianapolis, Indiana, United States) and/or by the appearance of dramatic alterations in the microscopic appearance of cell morphology at the time of harvest.
row,Compound,CC50 [µg/mL]
1,CC[C@H](C)[C@H](N)C1=N[C@H](C(=O)N[C@@H](CC(C)C)C(=O)N[C@H](CCC(=O)O)C(=O)N[C@H](C(=O)N[C@H]2CCCCNC(=O)[C@H](CC(N)=O)NC(=O)[C@@H](CC(=O)O)NC(=O)[C@H](Cc3cnc[nH]3)NC(=O)[C@@H](Cc3ccccc3)NC(=O)[C@H]([C@@H](C)CC)NC(=O)[C@@H](CCCN)NC2=O)[C@@H](C)CC)CS1 [Bacitracin] ({Ileψ(thiazoline)Cys}-L[dE]IK[dOrn]I[dF]H[dD]N; lactam 4-C (inferred)),> 420
2,CC[C@H](C)[C@H](NC(=O)CNC(=O)[C@H](CC(=O)O)NC(=O)[C@H](CCCNC(=N)N)NC(=O)[C@@H](NC(=O)[C@H](CC(N)=O)NC(=O)[C@H](CCC(N)=O)NC(=O)CNC(=O)[C@@H](NC(=O)[C@H](CCCCN)NC(=O)[C@H](CCC(=O)O)NC(=O)[C@@H](NC(=O)[C@H](CCCCN)NC(=O)[C@H](CCCCN)NC(=O)[C@H](Cc1ccccc1)NC(=O)[C@H](CC(C)C)NC(=O)[C@H](CCCCN)NC(=O)[C@H](Cc1c[nH]c2ccccc12)NC(=O)[C@@H](N)CCCCN)[C@@H](C)CC)C(C)C)[C@@H](C)CC)C(=O)N[C@H](C(=O)N[C@@H](CCCCN)C(=O)N[C@@H](C)C(=O)NCC(=O)N1CCC[C@H]1C(=O)N[C@@H](C)C(=O)N[C@H](C(=O)N[C@@H](C)C(=O)N[C@H](C(=O)N[C@H](C(=O)NCC(=O)N[C@@H](CCC(N)=O)C(=O)N[C@@H](C)C(=O)N[C@H](C(=O)N[C@@H](CCC(N)=O)C(=O)N[C@H](C(=O)N[C@@H](C)C(=O)N[C@@H](CCCCN)C(N)=O)[C@@H](C)CC)[C@@H](C)O)C(C)C)C(C)C)C(C)C)[C@@H](C)CC [Cecropin A (porcine)] (H-KWKLFKKIEKVGQNIRDGIIKAGPAVAVVGQATQIAK-NH2; N-terminus and C-terminus assumed),> 100
3,CC[C@H](C)[C@H](NC(=O)[C@H](CCCCN)NC(=O)[C@H](CCCCN)NC(=O)[C@H](Cc1ccccc1)NC(=O)[C@H](CC(C)C)NC(=O)[C@H](CCCCN)NC(=O)[C@H](Cc1c[nH]c2ccccc12)NC(=O)[C@@H](N)CCCCN)C(=O)NCC(=O)N[C@@H](C)C(=O)N[C@H](C(=O)N[C@@H](CC(C)C)C(=O)N[C@@H](CCCCN)C(=O)N[C@H](C(=O)N[C@@H](CC(C)C)C(N)=O)C(C)C)C(C)C [Cecropin A-Mellitin hybrid] (H-KWKLFKKIGAVLKVL-NH2; N-terminus and C-terminus assumed),11
4,CC(C)C[C@H](NC(=O)[C@H](C)NC(=O)[C@H](CCCCN)NC(=O)[C@H](CCCCN)NC(=O)[C@H](CC(C)C)NC(=O)[C@H](C)NC(=O)[C@H](CCCCN)NC(=O)[C@H](CCCCN)NC(=O)[C@H](CC(C)C)NC(=O)[C@H](CCCCN)NC(=O)[C@H](CCCCN)NC(=O)[C@H](CC(C)C)NC(=O)[C@H](C)NC(=O)[C@H](CCCCN)NC(=O)[C@H](CCCCN)NC(=O)[C@H](CC(C)C)NC(=O)[C@H](C)NC(=O)[C@H](CCCCN)NC(=O)[C@H](CC(C)C)NC(=O)[C@H](C)NC(=O)[C@H](CC(C)C)NC(=O)[C@H](C)NC(=O)[C@@H](N)Cc1ccccc1)C(=O)O [Hecate] (H-FALALKALKKALKKLKKALKKAL-OH; N-terminus and C-terminus assumed),17
5,CSCC[C@H](NC(=O)[C@H](CCCNC(=N)N)NC(=O)[C@H](Cc1c[nH]c2ccccc12)NC(=O)[C@H](CCC(N)=O)NC(=O)[C@H](Cc1c[nH]c2ccccc12)NC(=O)[C@H](CCCNC(=N)N)NC(=O)[C@@H](N)CCCNC(=N)N)C(=O)N[C@@H](CCCCN)C(=O)N[C@@H](CCCCN)C(=O)N[C@@H](CC(C)C)C(=O)NCC(=O)O [Lactoferricin B 4–14 fragment] (H-RRWQWRMKKLG-OH; N-terminus and C-terminus assumed),> 15
6,CC[C@H](C)[C@H](NC(=O)CN)C(=O)NCC(=O)N[C@@H](CCCCN)C(=O)N[C@@H](Cc1ccccc1)C(=O)N[C@@H](CC(C)C)C(=O)N[C@@H](Cc1c[nH]cn1)C(=O)N[C@@H](CO)C(=O)N[C@@H](C)C(=O)NCC(=O)N[C@@H](CCCCN)C(=O)N[C@@H](Cc1ccccc1)C(=O)NCC(=O)N[C@@H](CCCCN)C(=O)N[C@@H](C)C(=O)N[C@@H](Cc1ccccc1)C(=O)N[C@H](C(=O)NCC(=O)N[C@@H](CCC(=O)O)C(=O)N[C@H](C(=O)N[C@@H](CCSC)C(=O)N[C@@H](CCCCN)C(=O)N[C@@H](CO)C(=O)O)[C@@H](C)CC)C(C)C [Magainin-I] (H-GIGKFLHSAGKFGKAFVGEIMKS-OH),> 100
7,CC[C@H](C)[C@H](NC(=O)CN)C(=O)NCC(=O)N[C@@H](C)C(=O)N[C@H](C(=O)N[C@@H](CC(C)C)C(=O)N[C@@H](CCCCN)C(=O)N[C@H](C(=O)N[C@@H](CC(C)C)C(=O)N[C@H](C(=O)N[C@H](C(=O)NCC(=O)N[C@@H](CC(C)C)C(=O)N1CCC[C@H]1C(=O)N[C@@H](C)C(=O)N[C@@H](CC(C)C)C(=O)N[C@H](C(=O)N[C@@H](CO)C(=O)N[C@@H](Cc1c[nH]c2ccccc12)C(=O)N[C@H](C(=O)N[C@@H](CCCCN)C(=O)N[C@@H](CCCNC(=N)N)C(=O)N[C@@H](CCCCN)C(=O)N[C@@H](CCCNC(=N)N)C(=O)N[C@@H](CCC(N)=O)C(=O)N[C@@H](CCC(N)=O)C(N)=O)[C@@H](C)CC)[C@@H](C)CC)[C@@H](C)O)[C@@H](C)O)C(C)C)C(C)C [Melittin],4
8,CC(C)[C@H](NC(=O)[C@H](CCCCN)NC(=O)CNC(=O)CNC(=O)[C@H](CCC(N)=O)NC(=O)[C@H](CCCCN)NC(=O)CNC(=O)[C@H](CCCNC(=N)N)NC(=O)CNC(=O)[C@@H](N)CCCCN)C(=O)N[C@@H](CCCNC(=N)N)C(=O)N[C@@H](C)C(=O)N[C@@H](CCCCN)C(=O)N[C@@H](C)C(=O)N[C@@H](CCCCN)C(=O)N[C@H](C(=O)N[C@@H](CCCNC(=N)N)C(=O)N[C@@H](CO)C(=O)N[C@@H](CO)C(=O)O)[C@@H](C)O [Parasin-I] (H-KGRGKQGGKVRAKAKTRSS-OH),> 100
9,N=C(N)NCCC[C@H](NC(=O)[C@H](CCCNC(=N)N)NC(=O)[C@H](CCCNC(=N)N)NC(=O)[C@H](CCCNC(=N)N)NC(=O)[C@H](CCCNC(=N)N)NC(=O)[C@H](CCCNC(=N)N)NC(=O)[C@@H](N)CCCNC(=N)N)C(=O)O [Poly-arginine7],> 100
10,"CC[C@H](C)[C@@H]1NC(=O)CNC(=O)[C@H](CCCNC(=N)N)NC(=O)[C@H](Cc2ccc(O)cc2)NC(=O)[C@@H]2CSSC[C@H](NC1=O)C(=O)N[C@@H](Cc1ccc(O)cc1)C(=O)N[C@@H](CCCNC(=N)N)C(=O)N[C@@H](CCCNC(=N)N)C(=O)N[C@H](C(=O)N[C@@H](CCCNC(=N)N)C(N)=O)CSSC[C@H](NC(=O)[C@H](Cc1c[nH]c3ccccc13)NC(=O)[C@@H](N)CCCCN)C(=O)N[C@@H](Cc1ccccc1)C(=O)N[C@@H](CCCNC(=N)N)C(=O)N[C@@H](C(C)C)C(=O)N2 [Tachyplesin-I] (H-KWCFRVCYRGICYRRCR-NH2; disulfide 3-16, 7-12)",100
11,C[C@@H](O)[C@H](N)C(=O)N[C@@H](CCCCN)C(=O)N1CCC[C@H]1C(=O)N[C@@H](CCCNC(=N)N)C(=O)O [Tuftsin] (H-TKPR-OH; N-terminus and C-terminus assumed),> 100

# System: HeLa cells
# Assay: as above
# Format: cell-based
# Conditions: not given
# Experimental: as §1, §2
row,Compound,Cytotoxicity
1,OCCS [2-Mercaptoethanol],>100 µg/mL
2,O[C@@H](CS)[C@@H](O)CS [Dithiothreotol],>100 µg/mL
3,O=C(O)c1cc(SSc2ccc([N+](=O)[O-])c(C(=O)O)c2)ccc1[N+](=O)[O-] [Ellman's reagent],"1,300 μg/ml"
4,Cl.N=C(N)N [Guanidine hydrochloride],>475 µg/mL
5,C[C@@H]1[C@H](O)[C@@H](C)/C=C/C=C/CC/C=C/C=C/C=C/C=C/C(O[C@H]2O[C@H](C)[C@@H](O)[C@H](N)[C@@H]2O)CC2O[C@](O)(CC(O)C(O)CCC(O)CC(O)CC(O)CC(=O)O[C@H]1C)CC(O)C2C(=O)O (stereo partly shown) [Nystatin],100 µg/mL
6,CCCCCCCCCCCCOS(=O)(=O)[O-].[Na+] [Sodium dodecyl sulfate],333 µg/mL

# Same assay, conditions: >50% reduction in WST-1 turnover and/or altered cell morphology
row,Compound,Cytotoxicity [µg/mL]
1,"O=[N+]([O-])c1ccc(Cl)c([N+](=O)[O-])c1 [1-Chloro-2,4-dinitrobenzene (DNCB), 1-Chloro-2,4-dinitrobenzene]",7
2,Gelatin,>100
3,Gramicidins A-D [Gramicidins A-D (B. Brevis)],1.2
4,Poly-(arginine-aminocaproyl),>100

# Same assay, conditions: human
row,Compound,Cytotoxicity [µg/mL]
1,"CCCCS(=N)(=O)CCC(N)C(=O)O (stereo not shown) [Buthionine sulfoximine (BSO), Buthionine sulfoximine]",>7
